Calls of active or inactive are those of the source.
Legend:
[1] = inhibitors of intracellular T. cruzi replication, confirmation, NIH3T3 host cells, beta-gal luminescence (AID 2044); assay type: functional, cell-based;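 note: intracellular parasites grown in NIH/3T3 mouse fibroblasts as host cells; luminescent beta-galactosidase reporter signal from transgenic T. cruzi replicating inside host cells; inhibitors lower the luminescence signal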
[2] = cytotoxicity toward NIH3T3 fibroblasts, dose response, counter-screen, cell-based, ATP luminescence, mouse fibroblasts (AID 2010); assay type: functional;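 note: cells exposed to compound for about 90 hours before reading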
[3] = molecular target: T1, Histone-lysine N-methyltransferase NSD2 (Homo sapiens, UniProt O96028); assay type: biochemical
T1 sequence (O96028 whole entry): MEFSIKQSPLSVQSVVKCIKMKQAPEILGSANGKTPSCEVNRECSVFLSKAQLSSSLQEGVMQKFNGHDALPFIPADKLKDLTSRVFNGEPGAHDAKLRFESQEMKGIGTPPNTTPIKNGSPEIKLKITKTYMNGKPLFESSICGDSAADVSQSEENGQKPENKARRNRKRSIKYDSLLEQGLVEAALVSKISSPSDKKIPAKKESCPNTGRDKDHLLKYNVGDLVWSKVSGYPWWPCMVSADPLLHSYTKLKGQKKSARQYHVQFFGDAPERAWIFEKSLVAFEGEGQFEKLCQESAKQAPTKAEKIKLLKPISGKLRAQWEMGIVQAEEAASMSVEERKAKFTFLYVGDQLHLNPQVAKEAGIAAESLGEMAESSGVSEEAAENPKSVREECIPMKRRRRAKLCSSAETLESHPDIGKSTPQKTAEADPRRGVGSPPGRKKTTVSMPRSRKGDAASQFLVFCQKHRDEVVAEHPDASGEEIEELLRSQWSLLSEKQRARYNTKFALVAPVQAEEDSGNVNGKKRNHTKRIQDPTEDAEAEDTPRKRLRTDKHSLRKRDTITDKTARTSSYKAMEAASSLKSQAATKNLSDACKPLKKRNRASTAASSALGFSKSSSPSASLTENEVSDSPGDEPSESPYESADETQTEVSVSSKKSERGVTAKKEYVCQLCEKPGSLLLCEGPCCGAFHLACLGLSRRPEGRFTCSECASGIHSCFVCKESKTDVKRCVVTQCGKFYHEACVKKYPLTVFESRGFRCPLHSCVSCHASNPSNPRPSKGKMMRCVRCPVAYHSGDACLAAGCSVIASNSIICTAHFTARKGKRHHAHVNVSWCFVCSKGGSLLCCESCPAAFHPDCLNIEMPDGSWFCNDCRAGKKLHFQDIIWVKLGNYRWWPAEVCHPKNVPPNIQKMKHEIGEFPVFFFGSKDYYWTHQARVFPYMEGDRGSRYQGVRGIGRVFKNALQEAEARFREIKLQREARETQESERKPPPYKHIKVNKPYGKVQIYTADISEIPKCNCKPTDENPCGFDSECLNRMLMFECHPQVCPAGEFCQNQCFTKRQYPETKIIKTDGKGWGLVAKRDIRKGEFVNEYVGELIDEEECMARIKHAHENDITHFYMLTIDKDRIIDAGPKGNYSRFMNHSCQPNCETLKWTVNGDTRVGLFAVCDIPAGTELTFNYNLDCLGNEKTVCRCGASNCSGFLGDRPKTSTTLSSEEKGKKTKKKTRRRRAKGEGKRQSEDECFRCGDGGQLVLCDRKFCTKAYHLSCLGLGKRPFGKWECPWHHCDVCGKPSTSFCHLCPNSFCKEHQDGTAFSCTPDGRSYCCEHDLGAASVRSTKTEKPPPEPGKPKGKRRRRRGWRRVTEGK

Nonstructural protein 1 = Nonstructural protein 1 (Influenza A virus, UniProt Q194T2); assay type: functional, Influenza A virus (A/California/07/2009(H1N1))
Sequence of Nonstructural protein 1 (Q194T2 whole entry): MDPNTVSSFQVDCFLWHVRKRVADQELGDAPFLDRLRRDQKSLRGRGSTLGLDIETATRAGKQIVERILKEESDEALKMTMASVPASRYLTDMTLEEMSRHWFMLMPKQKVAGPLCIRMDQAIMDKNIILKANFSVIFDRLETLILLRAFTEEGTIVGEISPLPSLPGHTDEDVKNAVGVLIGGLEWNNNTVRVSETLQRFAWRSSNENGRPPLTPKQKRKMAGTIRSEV

P388/ADR = test: cells; assay type: functional; details: Mus musculus
SN12K1 = test: cells; assay type: functional; details: Homo sapiens
P388 = test: cells; assay type: functional; details: Mus musculus
HEK293 = test: inhibitors of LMP1-driven NF-kB reporter, dose response, cell-based, HEK293, luciferase, cherry-pick (AID 588343); assay type: functional; details: Homo sapiens
Large T antigen = Large T antigen (Simian virus 40, UniProt P03070); assay type: functional, Betapolyomavirus macacae;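 note: Confirmatory-stage PubChem screen for compounds that inhibit SV40 T antigen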
Sequence of Large T antigen (P03070 whole entry): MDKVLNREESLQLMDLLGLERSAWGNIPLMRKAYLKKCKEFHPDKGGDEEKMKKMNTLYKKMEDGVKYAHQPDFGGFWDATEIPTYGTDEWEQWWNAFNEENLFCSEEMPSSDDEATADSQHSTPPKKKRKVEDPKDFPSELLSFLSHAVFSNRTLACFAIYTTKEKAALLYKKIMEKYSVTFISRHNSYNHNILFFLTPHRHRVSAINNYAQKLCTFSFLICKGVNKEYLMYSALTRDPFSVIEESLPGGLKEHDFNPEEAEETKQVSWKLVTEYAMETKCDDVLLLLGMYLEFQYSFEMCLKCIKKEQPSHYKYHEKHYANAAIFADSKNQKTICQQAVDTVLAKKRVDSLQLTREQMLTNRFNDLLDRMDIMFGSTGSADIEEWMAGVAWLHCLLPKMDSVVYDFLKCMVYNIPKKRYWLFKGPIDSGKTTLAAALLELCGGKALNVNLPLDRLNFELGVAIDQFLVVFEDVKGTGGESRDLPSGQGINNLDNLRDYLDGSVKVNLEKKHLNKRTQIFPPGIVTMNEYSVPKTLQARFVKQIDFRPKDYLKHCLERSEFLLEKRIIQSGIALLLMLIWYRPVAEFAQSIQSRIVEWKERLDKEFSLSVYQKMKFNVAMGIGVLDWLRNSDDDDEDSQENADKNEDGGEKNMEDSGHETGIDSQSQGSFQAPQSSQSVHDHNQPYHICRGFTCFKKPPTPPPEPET

[4] = molecular target: Peroxisome proliferator-activated receptor gamma/Nuclear receptor coactivator 2 (Homo sapiens, UniProt P37231); assay type: functional;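 note: agonist potency for raising coactivator recruitment to the receptor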
[5] = molecular target: Peroxisome proliferator-activated receptor gamma/Nuclear receptor coactivator 1 (Homo sapiens, UniProt P37231); assay type: functional;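 note: agonist potency as compounds enhance coactivator SRC-1 recruitment to PPARgamma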
Sequence of Peroxisome proliferator-activated receptor gamma/Nuclear receptor coactivator 1 (P37231 whole entry): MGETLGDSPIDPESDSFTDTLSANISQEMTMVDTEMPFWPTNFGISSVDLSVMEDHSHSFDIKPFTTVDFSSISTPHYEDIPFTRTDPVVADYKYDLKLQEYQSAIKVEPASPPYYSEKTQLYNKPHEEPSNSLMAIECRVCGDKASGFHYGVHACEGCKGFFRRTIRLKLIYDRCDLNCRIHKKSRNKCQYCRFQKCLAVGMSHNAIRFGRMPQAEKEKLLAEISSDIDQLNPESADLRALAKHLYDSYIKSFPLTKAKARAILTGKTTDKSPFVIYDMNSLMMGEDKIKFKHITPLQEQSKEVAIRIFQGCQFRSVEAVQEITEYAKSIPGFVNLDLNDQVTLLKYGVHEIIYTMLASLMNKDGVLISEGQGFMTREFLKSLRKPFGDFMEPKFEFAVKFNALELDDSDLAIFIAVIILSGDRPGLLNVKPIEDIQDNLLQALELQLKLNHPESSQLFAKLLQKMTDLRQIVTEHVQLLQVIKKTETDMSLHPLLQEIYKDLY
Sequence of Peroxisome proliferator-activated receptor gamma/Nuclear receptor coactivator 1 (Q15788 whole entry, further chain): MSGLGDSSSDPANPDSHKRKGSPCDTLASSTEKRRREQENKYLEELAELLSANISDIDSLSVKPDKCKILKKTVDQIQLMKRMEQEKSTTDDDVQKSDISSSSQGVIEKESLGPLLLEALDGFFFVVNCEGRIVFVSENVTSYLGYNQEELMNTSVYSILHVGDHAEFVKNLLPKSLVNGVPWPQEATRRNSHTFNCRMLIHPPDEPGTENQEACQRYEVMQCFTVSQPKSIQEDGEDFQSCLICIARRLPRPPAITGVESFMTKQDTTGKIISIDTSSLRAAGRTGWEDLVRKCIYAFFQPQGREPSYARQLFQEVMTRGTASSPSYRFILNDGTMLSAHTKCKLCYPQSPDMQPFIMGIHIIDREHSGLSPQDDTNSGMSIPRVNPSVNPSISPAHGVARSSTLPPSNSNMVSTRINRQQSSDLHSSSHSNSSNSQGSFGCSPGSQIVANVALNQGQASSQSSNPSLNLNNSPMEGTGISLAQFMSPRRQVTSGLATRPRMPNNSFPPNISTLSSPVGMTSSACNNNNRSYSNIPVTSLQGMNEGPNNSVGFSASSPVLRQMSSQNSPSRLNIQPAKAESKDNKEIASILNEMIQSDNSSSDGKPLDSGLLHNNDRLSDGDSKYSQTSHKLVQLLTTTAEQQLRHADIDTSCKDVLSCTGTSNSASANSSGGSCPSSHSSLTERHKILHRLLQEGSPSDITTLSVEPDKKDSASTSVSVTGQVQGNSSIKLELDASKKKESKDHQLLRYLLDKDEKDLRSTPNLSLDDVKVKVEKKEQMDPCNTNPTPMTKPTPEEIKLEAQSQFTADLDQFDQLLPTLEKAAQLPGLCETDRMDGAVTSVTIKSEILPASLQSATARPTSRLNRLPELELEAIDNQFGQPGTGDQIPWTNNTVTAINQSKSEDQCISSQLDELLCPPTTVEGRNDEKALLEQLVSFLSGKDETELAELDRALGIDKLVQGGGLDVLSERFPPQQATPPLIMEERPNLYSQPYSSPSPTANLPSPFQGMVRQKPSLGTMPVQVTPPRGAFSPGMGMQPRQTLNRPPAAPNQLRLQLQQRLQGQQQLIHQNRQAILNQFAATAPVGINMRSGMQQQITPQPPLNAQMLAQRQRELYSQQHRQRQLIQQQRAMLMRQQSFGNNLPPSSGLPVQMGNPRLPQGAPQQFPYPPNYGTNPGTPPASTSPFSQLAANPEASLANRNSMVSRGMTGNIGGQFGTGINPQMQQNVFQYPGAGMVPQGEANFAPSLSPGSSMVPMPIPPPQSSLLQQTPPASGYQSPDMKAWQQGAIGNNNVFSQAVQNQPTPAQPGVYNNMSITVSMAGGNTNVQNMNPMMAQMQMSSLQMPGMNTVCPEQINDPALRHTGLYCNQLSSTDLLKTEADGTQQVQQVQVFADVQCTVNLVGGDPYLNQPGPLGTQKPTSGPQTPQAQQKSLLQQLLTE

[6] = molecular target: Peroxisome proliferator-activated receptor gamma/Nuclear receptor coactivator 3 (Homo sapiens, UniProt P37231); assay type: functional;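 note: agonist potency for raising coactivator recruitment to the receptor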
Cytochrome P450 3A4 = Cytochrome P450 3A4 (Homo sapiens, UniProt P08684); details: Potency;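 note: confirmatory qHTS run detecting inhibitors and substrates of CYP3A4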
Sequence of Cytochrome P450 3A4 (P08684 whole entry): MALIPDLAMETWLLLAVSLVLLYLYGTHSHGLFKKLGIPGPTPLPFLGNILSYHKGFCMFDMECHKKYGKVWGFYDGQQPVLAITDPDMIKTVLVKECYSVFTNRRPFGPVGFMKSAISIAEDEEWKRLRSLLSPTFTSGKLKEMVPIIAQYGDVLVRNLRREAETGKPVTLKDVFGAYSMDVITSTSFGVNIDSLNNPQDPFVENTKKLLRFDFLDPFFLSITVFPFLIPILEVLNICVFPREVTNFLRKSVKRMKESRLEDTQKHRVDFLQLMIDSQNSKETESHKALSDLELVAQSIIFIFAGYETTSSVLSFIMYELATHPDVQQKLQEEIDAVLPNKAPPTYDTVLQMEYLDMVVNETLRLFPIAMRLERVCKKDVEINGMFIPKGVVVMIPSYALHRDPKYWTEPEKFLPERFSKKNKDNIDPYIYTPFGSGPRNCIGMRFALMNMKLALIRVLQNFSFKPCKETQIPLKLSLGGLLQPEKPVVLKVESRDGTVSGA

| Compound | GI50 (P388/ADR) | GI50 (SN12K1) | GI50 (P388) | further results |
| --- | --- | --- | --- | --- |
| NCCc1c(-c2ccccc2)n(-c2ccccc2)c2ccccc12 | – | – | – | EC50 [1]: 2.47 µM (active); EC50 [2]: > 60 µM (inconclusive); AC50 [3]: > 20 µM (inactive) |
| O=C(C[n+]1ccccc1)NN=Cc1cc(Br)cc(Br)c1O | – | – | – | IC50 (Nonstructural protein 1): 3.68 µM (active) |
| Cc1c2ccncc2cc2c1[nH]c1ccccc12 | 2.93 µM (inactive) | 3.72 µM (inactive) | 1.61 µM (inactive) | – |
| CCOc1ccc(/C=N/Nc2cc(N3CCOCC3)ncn2)c(O)c1 | – | – | – | AC50 (HEK293): 15.5 µM (active) |
| Cc1c2ccnc(C(N)=O)c2c(C)c2c1[nH]c1ccccc12 | 12.9 µM (inactive) | 5.46 µM (inactive) | 2.9 µM (inactive) | – |
| CCCCCCCCCCCCCCCCCCOCC(COCCOCC[N+]1(CCCCCC(=O)[O-])CCCC1)Oc1ncccn1 (configuration not stated) | 11.2 µM (inactive) | 4.12 µM (inactive) | 0.288 µM (active) | – |
| COC1OC(=O)[C@H]2O[N+]([O-])=C(C)[C@@H]12 (some centres not stated) | > 100 µM (inactive) | > 100 µM (inactive) | > 100 µM (inactive) | – |
| NC1CCCCC1.O=P(O)(O)C(CSc1ccccc1)P(=O)(O)O | > 100 µM (inactive) | > 100 µM (inactive) | > 100 µM (inactive) | – |
| COc1ccc(C2COc3cc(O)c(O)cc3C2)cc1 (configuration not stated) | 1.19 µM (inactive) | 13.8 µM (inactive) | 1.67 µM (inactive) | – |
| CCn1c2ccccc2c2cc(/C=N/NC(=O)c3ccncc3)ccc21 | – | – | – | AC50 (HEK293): 1.46 µM (active) |
| Oc1ccc(/C=N/N2CCN(c3ccccn3)CC2)cc1 | – | – | – | IC50 (Large T antigen): 42.5 µM (active) |
| CCCCOc1ccc(NC2=NC3(CCCC3)N=C(N)N2)cc1 | – | – | – | EC50 [4]: > 79.4 µM (not active); EC50 [5]: > 79.4 µM (not active); EC50 [6]: > 79.4 µM (not active) |
| C=CCSSSCC=C [ALLITRIDIN] | – | – | – | AC50 (Cytochrome P450 3A4): 39.8 µM (inconclusive) |
| C/C(=C\COc1ccc2ccc(=O)oc2c1)C1=CC(=O)C(C)(C)O1 [GEIPARVARIN] | 1.44 µM (inactive) | 3.76 µM (inactive) | 1.9 µM (inactive) | – |

Source: ChEMBL document CHEMBL1201862, “PubChem BioAssay data set” (2004)
